US8080529B2, “Macrolides with anti-inflammatory activity” (Glaxo Group Limited, priority 2005, dated 2011)

How the values were obtained:
Assay type in all cases: in vivo
[1] = tested on: TNF-α; experiment: Lipopolysaccharide induced TNF-α production in Balb/cJ mice; conditions: Mus musculus, ip, 1.5 h; 10 mg/kg intraperitoneally, 30 min before LPS; 90 min after LPS; read-out: % inhibition of TNF-α production (plasma)
Procedure: Male Balb/cJ mice (Iffa Credo, France) weighing 25-33 g were randomly grouped (n=7 in test group, 7 in positive control group, 4 in negative control group). Test compounds, as well as vehicle [0.125% carboxymethyl-cellulose (Sigma, USA)], were administered to the mice intraperitoneally. Test compounds were administered at a dose of 10 mg/kg of body weight, in a volume of 10 mL/kg of body weight. Thirty minutes later, a sterile solution of lipopolysaccharide (LPS) (Sigma, USA) in saline was intraperitoneally administered at a concentration and volume of 25 μg/0.2 mL/mouse to each animal, except those in negative control. Ninety minutes following administration, all animals were sacrificed by puncturing a. carotis communis. The plasma concentration of TNF-α was determined by sandwich ELISA, using capture and detection antibodies (R&D, USA) according to manufacturer's recommendations. Results are presented in the following table as percent of inhibition of TNF-α production in comparison to the positive control (stimulated, but untreated animals).

[2] = tested on: neutrophils; experiment: Lung neutrophilia induced by bacterial lipopolysaccharide in male BALB/cJ mice: cells in BALF and lung tissue; conditions: 2.5 mg i.p.; 24 hours after LPS
Procedure: (§1) Male BALB/cJ mice (Iffa Credo, France), with average weight 30 g were randomly grouped (n=7 in testing group, 8 in positive control, 7 in negative control). Mice were administered intraperitoneally (i.p.) a single dose of 5 or 2.5 mg of test compound. Two hours after administration, 2 μg of bacterial lipopolysaccharide (LPS), dissolved in PBS in a volume of 60 μL, was intranasally administered to all experimental groups except the negative control group, which received the same volume (60 μL) of vehicle PBS. Animals were sacrificed approximately 24 hours after application of LPS in order to obtain bronchoalveolar lavage fluid (BALF), which was used to determine concentrations of IL-6 and TNF-α, absolute number of cells, and the percentage of neutrophils in BALF. Results are expressed as percentage of decrease of total cell number, relative number of neutrophils, and TNF-α, and IL-6 concentration in BALF of treated animals compared to positive control (LPS stimulated, but untreated animals).
(§2) Results are expressed as percentage of decrease of total cell number, relative number of neutrophils, and TNF-alpha and IL-6 concentration in BALF of treated animals compared to positive control (LPS stimulated, but untreated animals).
Besides accumulation of inflammatory cells in BALF, the extent and anatomic site of pulmonary inflammation induced by LPS was assessed 24 hours after PBS or LPS exposure. Accumulation of granulocytes and mononuclear cells in peribronchial (PB) and perivascular (PV) lung tissue areas and in alveolar spaces was monitored following sacrifice of the animals.

[3] = tested on: TNF-α; experiment: Lung neutrophilia induced by bacterial lipopolysaccharide in male BALB/cJ mice: TNF-α in BALF; conditions: 2.5 mg i.p.; 24 hours after LPS
Procedure: as §1, §2

[4] = tested on: IL-6; experiment: Lung neutrophilia induced by bacterial lipopolysaccharide in male BALB/cJ mice: IL-6 in BALF; conditions: 2.5 mg i.p.; 24 hours after LPS
Procedure: as §1, §2

For `CC[C@H]1OC(=O)[C@H](C)[C@@H](O[C@H]2C[C@@](C)(OC)C(OC(=O)CCN(CC)CC)[C@H](C)O2)[C@H](C)[C@@H](O[C@@H]2O[C@H](C)C[C@H](N(C)C(C)=O)[C@H]2O)[C@](C)(OC)C[C@@H](C)C(=O)N[C@H](C)[C@@H](O)[C@]1(C)O` (some centres unmarked) [Example 62, 3′-N-methyl-3′-N-acetyl-4″-O-(3-diethylaminopropionyl)-6-O-methyl-9a-aza-9a-homoerythromycin A], the inhibition in vivo at 10 mg/kg [1] was 59%, the “% decrease of neutrophils in BALF” value [2] was 13% and the “% decrease of total cell no. in BALF” value [2] was 47%. The “Percentage of decrease of TNF-α concentration in BALF” value [3] was 62% and the “Percentage of decrease of IL-6 concentration in BALF” value [4] was 22%.
